Measurements taken from US20250381181A1, “CANCER TREATMENT AGENT INCLUDING MALT1 INHIBITING DRUG AS ACTIVE INGREDIENT” (ONO PHARMACEUTICAL CO., LTD., priority 2022, published 2025).

How the values were obtained:
[1] = tested on: Human CD79 mutation-positive DLBCL cell line; test: Combination of Compound A and Btk inhibitor or Bcl-2 inhibitor, cell viability (Cell Counting Kit-8); format: cell-based; settings: combined treatment with Compound A (10, 30 or 100 nmol/L), 6 days
Description: (§1) Treatment concentrations of Compound A were 10, 30 or 100 nmol/L, and treatment concentrations of the Btk inhibitor and the Bcl-2 inhibitor were set between 0.3 to 300 nmol/L or 0.003 to 10 nmol/L, respectively.

Human MCL cell line = test: as above; format: cell-based; settings: combined treatment with Compound A (10, 30 or 100 nmol/L), 6 days
Description: as §1

[2] = tested on: Human CD79 mutation-positive diffuse large B-cell lymphoma cell line; test: Combination of Compound A and each anticancer agent, cell viability (Cell Counting Kit-8); settings: combined treatment with Compound A (3, 10, 30 or 100 nmol/L); CD79 mutation-positive DLBCL; 6 days
Description: (§6) Human CD79 mutation-positive diffuse large B-cell lymphoma cell lines and human mantle cell lymphoma cell lines were used. The cells were subcultured using RPMI1640 containing 10% non-mobilized fetal bovine serum (hereinafter, the medium) under conditions of 5% CO2 and 37° C.
(§7) The cells suspended in the medium were seeded in 96 well plates at a density of 2500 or 5000 cells/100 μL per well. […] After completion of the culture, the number of surviving cells was measured using Cell Counting Kit-8 (DOJINDO) according to the procedure of the kit.

[3] = tested on: Human mantle cell lymphoma cell line; test: as above; settings: combined treatment with Compound A (3, 10, 30 or 100 nmol/L), 6 days
Description: as §6, §7

[4] = tested on: human CD79 mutation-positive diffuse large B-cell lymphoma cell line; test: Antitumor effect in mouse subcutaneous transplantation model; format: in vivo; settings: orally for 21 days; Compound A 10 mg/kg twice a day, Ibrutinib 10 mg/kg once a day; subcutaneous tumor in NOG mice
Description: A human CD79 mutation-positive diffuse large B-cell lymphoma cell line was used. The cells were subcultured using Iscove's modified Dulbecco's medium containing 20% inactivated calf serum and 0.5 mmol/L Monothioglycerol under conditions of 5% CO2 and 37° C.
The cells were suspended in HBSS:Matrigel=1:1 and implanted subcutaneously in the abdomen of 7-week-old female NOG mice at 1×10^6 cells/mouse. The tumor volume was measured using a caliper, and calculated by a calculation formula of tumor volume=(major tumor diameter×minor tumor diameter×minor tumor diameter)/2. At the time when the tumor volume reached about 120 mm^3, grouping was performed into 4 groups of 6 mice per group. Compound A was orally administered at a dose of 10 mg/kg twice a day for 21 days, and Ibrutinib was orally administered at a dose of 10 mg/kg once a day for 21 days. Also, the combined administration group was orally administered with 10 mg/kg of Compound A and 10 mg/kg of ibrutinib. The control group was orally administered with a 0.5% methylcellulose solution. After grouping, tumor volume measurements were performed twice a week. T/C (%) was used as an index of the antitumor effect.
Regarding the amount of tumor volume change during the administration period of each group, the combined antitumor effect of Compound A and Ibrutinib was analyzed by a statistical method of two-way ANOVA of EZR (ver. 1.54) software.

[5] = tested on: Human CD79 mutation-positive diffuse large B-cell lymphoma cell line 2; test: Combined effect on cell viability, Compound A and Btk inhibitor (CellTiter-Glo, in vitro); format: cell-based; settings: combined treatment with Compound A, 6 days of culture
Description: (§2) Using Ibrutinib as a Btk inhibitor, the combined effect on cell viability with Compound A was evaluated in vitro.
(§3) After 6 days of culture from the addition, the cell viability was evaluated as follows.
(§4) Cell viability was evaluated by each treatment by measuring intracellular adenosine triphosphate (ATP) using CellTiter-Glo. That is, 100 μL of CellTiter-Glo solution per well was added to each well and incubated at room temperature for 15 minutes, and then chemiluminescence was measured. The average value of each combination was calculated from the obtained data, and a concentration reaction curve of the cell viability of each drug alone or in combination was created with the luminescence intensity in cells treated with DMSO alone as 100%.
(§5) The half maximal inhibitory concentration (IC50) for each drug was determined using median effect analysis software CalcuSyn 2.0 (CalcuSyn, Inc).

[6] = tested on: Human CD79 mutation-positive diffuse large B-cell lymphoma cell line 1; test: as above; format: cell-based; settings: combined treatment with Compound A
Description: as §2, §3, §4, §5

[7] = tested on: Human CARD11 mutation-positive DLBCL cell line; test: Combination of Compound A and Bcl-2 inhibitor, cell viability (Cell Counting Kit-8); format: cell-based; settings: combined treatment with Compound A (10, 30 or 100 nmol/L), 6 days
Description: as §1

| Compound | Combination index (CI) value, median [2] | Combination index (CI) value, median [3] | further results |
| --- | --- | --- | --- |
| O=C(c1ccc(Oc2ccccc2)cc1Cl)c1c[nH]c2ncnc(N[C@@H]3CC[C@@H](CO)OC3)c12 [ARQ-531] | – | – | Combination index (CI) value, median [1]: 0.701; Combination index (CI) value, median (Human MCL cell line): 0.928 |
| CC#CC(=O)N1CCC[C@H]1c1nc(-c2ccc(C(=O)Nc3ccccn3)cc2)c2c(N)nccn12 [Acarabrutinib] | – | – | Combination index (CI) value, median [1]: 0.839; Combination index (CI) value, median (Human MCL cell line): 0.956 |
| Nc1cc(C(F)(F)F)c(-c2cc(N3CCOCC3)nc(N3CCOCC3)n2)cn1 [BKM120] | 0.729 | – | – |
| C=C(c1ccc(C(=O)O)cc1)c1cc2c(cc1C)C(C)(C)CCC2(C)C [Bexarotene] | – | 0.276 | – |
| Cc1cc(-c2nc(C(=O)Nc3cc4oc(N5CCOCC5)nc4nc3N3CC[C@@H](O)C3)co2)ccn1 [CA-4948] | 0.905 | 0.846 | – |
| CO[C@@H](C)c1c(NC(=O)Nc2cnc(-n3nccn3)c(C(F)(F)F)c2)cnc2ccc(Cl)nc12 [Compound A, (S)—N-(6-chloro-4-(1-methoxyethyl)-1,5-naphthyridin-3-yl)-N′-(6-(2H-1,2,3-triazol-2-yl)-5-(trifluoromethyl)pyridin-3-yl)urea] | – | – | T/C (%) [4]: 49.8% |
| COc1cccc2c1C(=O)c1c(O)c3c(c(O)c1C2=O)C[C@@](O)(C(=O)CO)C[C@@H]3O[C@H]1C[C@H](N)[C@H](O)[C@H](C)O1 [Doxorubicin] | 0.953 | 0.932 | – |
| Cn1cc(C2=C(c3cn(C4CCN(Cc5ccccn5)CC4)c4ccccc34)C(=O)NC2=O)c2ccccc21 [Enzastaurin] | 0.854 | 0.842 | – |
| CO[C@H]1C[C@@H]2CC[C@@H](C)[C@@](O)(O2)C(=O)C(=O)N2CCCC[C@H]2C(=O)O[C@H]([C@H](C)C[C@@H]2CC[C@@H](OCCO)[C@H](OC)C2)CC(=O)[C@H](C)/C=C(\C)[C@@H](O)[C@@H](OC)C(=O)[C@H](C)C[C@H](C)/C=C/C=C/C=C/1C [Everolimus] | 0.464 | 0.225 | – |
| CS(=O)(=O)N1CCN(Cc2cc3nc(-c4cccc5[nH]ncc45)nc(N4CCOCC4)c3s2)CC1 [GDC-0941] | 0.873 | 0.694 | – |
| C=CC(=O)N1CCC[C@@H](n2nc(-c3ccc(Oc4ccccc4)cc3)c3c(N)ncnc32)C1 [Ibrutinib] | – | – | combination index (CI), median [5]: 0.504; combination index (CI), median ([6]; cell line 1, 6 days of culture): 0.629; median of CI ([6]; in each cell line (cell lines 1 and 2), synergistic effect): less than 1; T/C (%) [4]: 63.1% |
| CC[C@H](Nc1ncnc2[nH]cnc12)c1nc2cccc(F)c2c(=O)n1-c1ccccc1 [Idelalisib] | 0.528 | 0.457 | – |
| COc1ccc(F)cc1C(=O)NCc1ccc(-c2nn([C@@H](C)C(F)(F)F)c(N)c2C(N)=O)cc1 [LOXO-305] | – | – | Combination index (CI) value, median [1]: 0.764; Combination index (CI) value, median (Human MCL cell line): 0.646 |
| Nc1cccc2c1CN(C1CCC(=O)NC1=O)C2=O (stereo not drawn) [Lenalidomide] | 0.736 | 0.190 | – |
| NC1(c2ccc(-c3nc4ccn5c(=O)[nH]nc5c4cc3-c3ccccc3)cc2)CCC1 [MK-2206] | 0.626 | 0.915 | – |
| NC(=O)c1cnc(N[C@@H]2CCCC[C@@H]2N)nc1Nc1cccc(-n2nccn2)c1 [PRT062607] | 0.630 | 0.820 | – |
| CC(=O)c1c(C)c2cnc(Nc3ccc(N4CCNCC4)cn3)nc2n(C2CCCC2)c1=O [Palbociclib] | 0.658 | 0.443 | – |
| C[C@]12C=CC(=O)C=C1CC[C@@H]1[C@@H]2[C@@H](O)C[C@@]2(C)[C@H]1CC[C@]2(O)C(=O)CO [Prednisolone] | 0.168 | 0.854 | – |
| CN1CCN(c2nc(C3=C(c4c[nH]c5ccccc45)C(=O)NC3=O)c3ccccc3n2)CC1 [Sotrastaurin] | 0.896 | 0.775 | – |
| CC#CC(=O)N1CC[C@@H](n2c(=O)n(-c3ccc(Oc4ccccc4)cc3)c3c(N)ncnc32)C1 [Tirabrutinib] | – | – | Combination index (CI) value, median [1]: 0.761; Combination index (CI) value, median (Human MCL cell line): 0.822 |
| CC(=O)Nc1cccc(-n2c(=O)n(C3CC3)c(=O)c3c(Nc4ccc(I)cc4F)n(C)c(=O)c(C)c32)c1 [Trametinib] | 0.218 | 0.971 | – |
| Nc1cc(F)ccc1NC(=O)c1ccc(CNC(=O)/C=C/c2cccnc2)cc1 [Tucidinostat] | 0.756 | 0.668 | – |
| CC1(C)CCC(CN2CCN(c3ccc(C(=O)NS(=O)(=O)c4ccc(NCC5CCOCC5)c([N+](=O)[O-])c4)c(Oc4cnc5[nH]ccc5c4)c3)CC2)=C(c2ccc(Cl)cc2)C1 [Venetoclax] | – | – | Combination index (CI) value, median [1]: 0.5985; Combination index (CI) value, median (Human MCL cell line): 0.372; Combination index (CI) value, median [7]: 0.5995 |
| O=C(CCCCCCC(=O)Nc1ccccc1)NO [Vorinostat] | 0.930 | 0.866 | – |
| CN1CCC(c2ccccc2CC(C)(C)Nc2nc(N3CCOCC3)nc(-n3c(C(F)F)nc4ccccc43)n2)CC1 [Zandelisib] | 0.494 | 0.698 | – |
| C=CC(=O)N1CCC([C@@H]2CCNc3c(C(N)=O)c(-c4ccc(Oc5ccccc5)cc4)nn32)CC1 [Zanubrutinib] | – | – | Combination index (CI) value, median [1]: 0.811; Combination index (CI) value, median (Human MCL cell line): 0.75 |
| Irinotecan (SN-38) | 0.993 | 0.903 | – |
